Measurements: US6448011B1, “DNA encoding human alpha 1 adrenergic receptors and uses thereof” (Synaptic Pharmaceutical Corporation, priority 1992, dated 2002)
Where a name gives a salt, the structure may show the parent alone.

Tested on: human prostate tissue
Assay: Inhibition of phenylephrine-induced contraction of human prostate tissue strips
Conditions: dose-ratio method
Procedure: Methods: Prostatic adenomas were obtained at the time of surgery from patients with symptomatic BPH. These were cut into longitudinal strips of 15 mm long and 2-4 mm wide, and suspended in 5 ml organ baths containing Krebs buffer (pH 7.4). The baths were maintained at 37° C. and continuously oxygenated with 5% CO2 and 95% O2. Isometric tension was measured with a Grass Instrument FT03 force transducer interfaced with a computer.
Tissue strips were contracted with varying concentrations of phenylephrine after incubating for 20 minutes in the absence and presence of at least three different concentrations of antagonist. Dose-response curves for phenylephrine were constructed, and the antagonist potency (pA2) was estimated by the dose-ratio method. […] This control was necessary to account for losses of antagonist due to adsorption to the tissue bath and/or metabolism during the time the antagonists were equilibrated with the prostate tissue.

First: COc1cc2nc(N3CCN(C(=O)c4ccco4)CC3)nc(N)c2cc1OC [Prazosin]
Second: O=C(CCCN1CCC(NC(=O)c2ccccc2)CC1)c1ccc(Cl)cc1 [Compound 7, 1-[3-(4-chlorobenzoyl)propyl]-4-benzamidopiperidine]
The “Human Prostate (pA)” value of the first is higher: 9.08 for the first, 7.63 for the second.

Compared with “4-fluoro-4-(8-fluoro-1,3,4,5-tetrahydro-2H-pyrido[4,3-b]indol-2-yl)butyrophenone hydrochloride [Compound A-30360]”, `COc1cc2nc(N3CCN(C(=O)C4CCCO4)CC3)nc(N)c2cc1OC` (stereo not shown) [Terazosin, 2[4-(Tetrahydro-2-furoyl)piperazinyl]-4-amino-6,7-dimethoxyquinazoline hydrochloride] is lower in “Human Prostate (pA)” value: 8.72 for the first, 7.30 for the second.

First: C=Cc1sc2ccc(Cl)c3c2c1CN(C)CC3 [SKF-104856, 7-Chloro-2-ethenyl-3,4,5,6-tetrahdyro-4-methylthieno[4,3,2-ef][3]benzazepine]
Second: COc1ccccc1N1CCN(CCCNc2c(C)c(=O)n(C)c(=O)n2C)CC1 [5-Methyl Urapidil, 5-methylurapidil]
The “Human Prostate (pA)” value of the first is lower: 7.66 for the first, 8.38 for the second.

Going from `O=C(NC1CCN(CCc2c[nH]c3ccccc23)CC1)c1ccccc1` [Indoramin] to `O=C(CCCN1CCC(NC(=O)c2ccccc2)CC1)c1ccccc1` [Compound 9, 1-(3-benzoylpropyl)-4-benzamidopiperidine], the “Human Prostate (pA)” value falls from 7.86 to 7.41.

Tested on: not given
Assay: not given
Conditions: not given

`O=C(CCCN1CCC(NC(=O)c2ccccc2)CC1)c1ccc(Cl)cc1` (as salt: HCl) [Compound 7, 1-[3-(4-chlorobenzoyl)propyl]-4-benzamidopiperidine] showed a melting point of 243 to 244 °C.

Target: T1, α1c receptor (Bos taurus, UniProt P18130)
T1 sequence (P18130 1-466): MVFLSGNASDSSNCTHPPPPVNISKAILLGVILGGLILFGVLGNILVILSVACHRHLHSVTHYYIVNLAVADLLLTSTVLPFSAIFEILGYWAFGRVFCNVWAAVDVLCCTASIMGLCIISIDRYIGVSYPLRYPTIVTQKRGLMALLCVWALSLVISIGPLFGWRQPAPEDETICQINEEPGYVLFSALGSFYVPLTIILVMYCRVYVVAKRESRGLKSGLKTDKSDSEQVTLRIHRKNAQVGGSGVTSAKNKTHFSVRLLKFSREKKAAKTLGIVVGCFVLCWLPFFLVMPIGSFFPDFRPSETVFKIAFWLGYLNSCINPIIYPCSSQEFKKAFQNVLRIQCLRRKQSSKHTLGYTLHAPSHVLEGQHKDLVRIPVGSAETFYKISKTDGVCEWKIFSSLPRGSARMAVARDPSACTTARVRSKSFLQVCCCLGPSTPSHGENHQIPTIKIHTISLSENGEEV
Assay: not given
Conditions: expressed α1c receptor; cited from earlier work

In the case of `Cc1ccc(N(CC2=NCCN2)c2cccc(O)c2)cc1` [phentolamine], the “fold higher affinity than the α1b-receptor” value is given as 30 fold.
